Experiments:
[1] = target: T1, α-Glucosidase from Saccharomyces cerevisiae (EC 3.2.1.20) (Saccharomyces cerevisiae, UniProt P53341); experiment: Enzyme inhibitory mechanism and kinetic type assay (Lineweaver-Burk plots); assay type: biochemical; conditions: compound 0–25 μM
T1 construct: purchased Sigma-Aldrich
Text: To study the inhibitory mechanisms of all derivatives on α-glucosidase, enzyme inhibitory mechnism was detected using compound 4 with the strongest inhibitory. Figure 3A illustrated the plots of enzyme activity vs. enzyme concentration.
The kinetic type was also studied using Lineweaver-Burk plots.
α-Glucosidase from Saccharomyces cerevisiae (EC 3.2.1.20) and p-Nitrophenyl-α-D-[…] (p-NPG) were purchased from Sigma-Aldrich. All additional reagents and solvents were readily obtained from a commercial source. NMR spectra were obtained on 500 MHz equipment in CDCl3. High-resolution mass spectral (HRMS) data was recorded on Apex II using the ESI technique.
The α-glucosidase inhibitory activity of compounds (1 ∼ 6) was detected as described in previous reports ([Adisakwattana et al., 2009]; [Adisakwattana et al., 2013]; [Zhang et al., 2022]). 10 μl α-glucosidase solution, 10 μl compound were added into 80 μl phosphate buffer, and the mixture was incubated for 10 min. Then, 100 μl p-NPG solution was added into the mixture, followed by the absorbance change detection at 405 nm. The inhibition rate (%) = […] × 100%, where OD1 and OD0 were the absorbance of tested compound and blank, respectively. The IC50 value was calculated from the plot of inhibition rate vs. compound concentration. Acarbose was used as a positive sample. All samples were repeated four times. The enzyme inhibitory mechnism and kinetic type were also determined according to previous reported reports ([Adisakwattana et al., 2004]; [Song et al., 2016]).

[2] = target: T1, α-Glucosidase from Saccharomyces cerevisiae (EC 3.2.1.20); experiment: biochemical

T1 sequence (P53341 whole entry): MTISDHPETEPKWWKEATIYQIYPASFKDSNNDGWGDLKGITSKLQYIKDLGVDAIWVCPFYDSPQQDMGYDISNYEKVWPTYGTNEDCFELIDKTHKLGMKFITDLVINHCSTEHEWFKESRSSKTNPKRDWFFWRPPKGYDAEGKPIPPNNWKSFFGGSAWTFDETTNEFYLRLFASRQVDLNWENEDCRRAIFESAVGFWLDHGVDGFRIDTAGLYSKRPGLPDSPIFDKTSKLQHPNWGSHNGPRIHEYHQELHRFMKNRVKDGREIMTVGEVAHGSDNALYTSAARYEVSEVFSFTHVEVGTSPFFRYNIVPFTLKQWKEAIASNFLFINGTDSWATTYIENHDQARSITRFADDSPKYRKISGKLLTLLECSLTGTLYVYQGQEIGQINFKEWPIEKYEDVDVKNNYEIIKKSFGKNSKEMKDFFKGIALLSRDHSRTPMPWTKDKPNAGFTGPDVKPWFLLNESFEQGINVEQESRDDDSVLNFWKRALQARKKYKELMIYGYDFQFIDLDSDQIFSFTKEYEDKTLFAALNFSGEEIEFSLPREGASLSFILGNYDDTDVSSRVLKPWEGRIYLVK

Compound | Inhibition type (Lineweaver-Burk plots of enzyme activity vs. substrate concentration) [1] | Inhibitory mechanism (plots of enzyme activity vs. enzyme concentration) [1] | Inhibition type (Lineweaver-Burk plots of enzyme activity vs. substrate concentration) ([1]; listed as derivative four) | Inhibitory mechanism (plots of enzyme activity vs. enzyme concentration) ([1]; listed as derivative four) | melting point | IC50 [2]
O=C(CCc1ccc(Br)cc1)Oc1ccc(-c2cc(=O)c3ccccc3o2)cc1 [Compound 4] | mix-type inhibition | reversible inhibitor | mixed-type inhibitor | reversible | 127 to 129 °C | 15.7 ± 0.21 µM
O=C(CCc1ccc(C(F)(F)F)cc1)Oc1ccc(-c2cc(=O)c3ccccc3o2)cc1 [Compound 6] |  |  |  |  | 250 to 251 °C | 27.54 ± 0.02 µM
O=C(CCc1ccccc1)Oc1ccc(-c2cc(=O)c3ccccc3o2)cc1 [Compound 1] |  |  |  |  | 133 to 134 °C | 42.06 ± 0.08 µM
O=C(CCc1ccc(F)cc1)Oc1ccc(-c2cc(=O)c3ccccc3o2)cc1 [Compound 5] |  |  |  |  | 103 to 104 °C | 19.66 ± 0.04 µM
O=C(CCc1ccc(Cl)cc1)Oc1ccc(-c2cc(=O)c3ccccc3o2)cc1 [Compound 3] |  |  |  |  | 112 to 114 °C | 31.09 ± 0.1 µM
Cc1ccc(CCC(=O)Oc2ccc(-c3cc(=O)c4ccccc4o3)cc2)cc1 [Compound 2] |  |  |  |  | 135 to 136 °C | 21.55 ± 0.13 µM

Reference: article PMC9705736, “Synthesis of activity evaluation of flavonoid derivatives as ɑ-glucosidase inhibitors” (Frontiers in Chemistry, 2022)
